From ChEMBL document CHEMBL5465560, “Selectivity Literature for EUbOPEN Chemogenomic Library” (2024)
Blank lines part the entries; values can stand above or below the molecule they belong to.

How the values were obtained:
[1] = biological target: T1, Phosphatidylinositol 3-kinase C2 domain-containing subunit gamma (Homo sapiens) (UniProt O75747); test: Selectivity interaction (KinomeScan (DiscoverX)) EUB0000607a PIK3C2G; conditions: at 10 µM
T1 sequence (whole entry): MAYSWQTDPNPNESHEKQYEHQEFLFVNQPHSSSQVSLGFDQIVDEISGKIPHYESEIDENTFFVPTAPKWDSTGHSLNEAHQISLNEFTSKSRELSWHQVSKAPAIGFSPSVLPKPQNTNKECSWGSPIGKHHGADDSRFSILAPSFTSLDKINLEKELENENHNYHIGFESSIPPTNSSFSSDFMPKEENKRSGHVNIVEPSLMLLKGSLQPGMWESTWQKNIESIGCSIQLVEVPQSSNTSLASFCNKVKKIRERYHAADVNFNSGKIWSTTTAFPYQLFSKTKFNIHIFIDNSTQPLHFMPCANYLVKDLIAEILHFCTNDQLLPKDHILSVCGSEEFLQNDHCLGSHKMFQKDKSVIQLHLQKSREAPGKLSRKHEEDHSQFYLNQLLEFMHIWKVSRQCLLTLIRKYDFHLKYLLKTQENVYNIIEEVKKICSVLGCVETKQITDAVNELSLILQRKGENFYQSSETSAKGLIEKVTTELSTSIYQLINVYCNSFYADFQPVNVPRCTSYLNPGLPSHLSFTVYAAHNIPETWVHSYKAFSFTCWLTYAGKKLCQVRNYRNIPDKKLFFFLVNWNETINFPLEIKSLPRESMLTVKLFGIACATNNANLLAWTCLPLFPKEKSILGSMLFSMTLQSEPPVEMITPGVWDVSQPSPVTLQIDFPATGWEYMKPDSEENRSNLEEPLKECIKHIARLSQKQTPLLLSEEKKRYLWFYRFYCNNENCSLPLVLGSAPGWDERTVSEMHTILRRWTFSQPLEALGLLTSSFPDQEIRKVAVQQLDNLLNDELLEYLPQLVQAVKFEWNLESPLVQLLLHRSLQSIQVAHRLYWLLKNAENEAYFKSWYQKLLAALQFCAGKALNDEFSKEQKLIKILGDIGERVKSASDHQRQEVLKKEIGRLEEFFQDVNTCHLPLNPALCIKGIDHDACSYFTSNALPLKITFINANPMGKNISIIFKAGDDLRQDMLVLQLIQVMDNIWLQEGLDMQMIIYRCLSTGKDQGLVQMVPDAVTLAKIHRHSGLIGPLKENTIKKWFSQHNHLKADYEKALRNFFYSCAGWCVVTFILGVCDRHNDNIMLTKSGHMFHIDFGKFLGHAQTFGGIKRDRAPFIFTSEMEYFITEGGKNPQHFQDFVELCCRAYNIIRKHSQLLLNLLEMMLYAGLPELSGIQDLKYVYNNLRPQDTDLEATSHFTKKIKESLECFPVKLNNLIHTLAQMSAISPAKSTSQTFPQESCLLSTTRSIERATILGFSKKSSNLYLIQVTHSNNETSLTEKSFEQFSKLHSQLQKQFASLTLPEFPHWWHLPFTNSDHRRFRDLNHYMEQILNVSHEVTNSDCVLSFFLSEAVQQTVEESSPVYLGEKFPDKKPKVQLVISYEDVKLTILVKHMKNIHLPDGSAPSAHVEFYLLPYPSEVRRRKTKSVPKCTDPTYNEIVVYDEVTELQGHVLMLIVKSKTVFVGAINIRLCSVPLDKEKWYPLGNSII

[2] = biological target: Serine/threonine-protein kinase Nek6 (Homo sapiens) (UniProt Q9HC98); test: Selectivity interaction (KinomeScan (DiscoverX)) EUB0000607a NEK6; conditions: at 10 µM
Ephrin type-A receptor 4 [3] = biological target: T2, Ephrin type-A receptor 4 (Homo sapiens, UniProt P54764); conditions: at 10 µM
[4] = biological target: Proto-oncogene tyrosine-protein kinase ROS (Homo sapiens) (UniProt P08922); test: Selectivity interaction (Kinase panel (Invitrogen)) EUB0000639a ROS1; conditions: at 200 nM
[5] = biological target: Serine/threonine-protein kinase SMG1 (Homo sapiens) (UniProt Q96Q15); test: Selectivity interaction (ActivX KiNativ screen (kinase selectivity in THP-1 cell lysates)) EUB0000639a SMG1; assay type: subcellular; conditions: lysate, at 0.2 µM
[6] = biological target: T3, Protein kinase C epsilon type (Homo sapiens) (UniProt Q02156); test: Selectivity interaction (KinomeScan (DiscoverX)) EUB0000595a PRKCE; conditions: at 10 µM
T3 sequence (whole entry): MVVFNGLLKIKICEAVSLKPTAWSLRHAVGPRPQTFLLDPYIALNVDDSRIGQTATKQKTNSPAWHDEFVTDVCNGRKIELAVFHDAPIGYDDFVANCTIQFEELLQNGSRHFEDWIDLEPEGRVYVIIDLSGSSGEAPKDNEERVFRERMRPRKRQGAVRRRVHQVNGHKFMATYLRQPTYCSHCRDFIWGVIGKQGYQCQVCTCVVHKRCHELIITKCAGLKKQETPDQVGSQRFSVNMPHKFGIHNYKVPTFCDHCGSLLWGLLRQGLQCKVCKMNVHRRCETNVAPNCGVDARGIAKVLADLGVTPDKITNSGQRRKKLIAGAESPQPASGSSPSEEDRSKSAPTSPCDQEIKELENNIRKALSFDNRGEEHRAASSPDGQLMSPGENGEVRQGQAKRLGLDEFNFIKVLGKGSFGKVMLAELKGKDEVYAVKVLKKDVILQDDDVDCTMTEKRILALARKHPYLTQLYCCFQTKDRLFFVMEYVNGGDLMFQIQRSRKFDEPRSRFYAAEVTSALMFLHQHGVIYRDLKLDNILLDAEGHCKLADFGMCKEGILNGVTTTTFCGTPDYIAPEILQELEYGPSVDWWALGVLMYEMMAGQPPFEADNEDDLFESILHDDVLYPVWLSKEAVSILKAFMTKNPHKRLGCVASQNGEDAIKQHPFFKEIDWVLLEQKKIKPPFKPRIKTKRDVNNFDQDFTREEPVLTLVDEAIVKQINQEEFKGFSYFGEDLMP

[7] = biological target: Rho-associated protein kinase 2 (Homo sapiens, UniProt O75116); test: Selectivity interaction (Millipore kinase profiler) EUB0000124b ROCK2; conditions: at 10 µM
[8] = biological target: Mitogen-activated protein kinase 9 (Homo sapiens, UniProt P45984); test: Selectivity interaction (Millipore kinase profiler) EUB0000124b MAPK9; conditions: at 10 µM
[9] = biological target: Rho-associated protein kinase 1 (Homo sapiens) (UniProt Q13464); test: Selectivity interaction (KinomeScan (DiscoverX)) EUB0001619a ROCK1; conditions: at 1 µM
Ephrin type-A receptor 4 [10] = biological target: T2, Ephrin type-A receptor 4; test: Selectivity interaction (KinomeScan (DiscoverX)) EUB0001619a EPHA4; conditions: at 1 µM

T2 sequence (P54764 whole entry): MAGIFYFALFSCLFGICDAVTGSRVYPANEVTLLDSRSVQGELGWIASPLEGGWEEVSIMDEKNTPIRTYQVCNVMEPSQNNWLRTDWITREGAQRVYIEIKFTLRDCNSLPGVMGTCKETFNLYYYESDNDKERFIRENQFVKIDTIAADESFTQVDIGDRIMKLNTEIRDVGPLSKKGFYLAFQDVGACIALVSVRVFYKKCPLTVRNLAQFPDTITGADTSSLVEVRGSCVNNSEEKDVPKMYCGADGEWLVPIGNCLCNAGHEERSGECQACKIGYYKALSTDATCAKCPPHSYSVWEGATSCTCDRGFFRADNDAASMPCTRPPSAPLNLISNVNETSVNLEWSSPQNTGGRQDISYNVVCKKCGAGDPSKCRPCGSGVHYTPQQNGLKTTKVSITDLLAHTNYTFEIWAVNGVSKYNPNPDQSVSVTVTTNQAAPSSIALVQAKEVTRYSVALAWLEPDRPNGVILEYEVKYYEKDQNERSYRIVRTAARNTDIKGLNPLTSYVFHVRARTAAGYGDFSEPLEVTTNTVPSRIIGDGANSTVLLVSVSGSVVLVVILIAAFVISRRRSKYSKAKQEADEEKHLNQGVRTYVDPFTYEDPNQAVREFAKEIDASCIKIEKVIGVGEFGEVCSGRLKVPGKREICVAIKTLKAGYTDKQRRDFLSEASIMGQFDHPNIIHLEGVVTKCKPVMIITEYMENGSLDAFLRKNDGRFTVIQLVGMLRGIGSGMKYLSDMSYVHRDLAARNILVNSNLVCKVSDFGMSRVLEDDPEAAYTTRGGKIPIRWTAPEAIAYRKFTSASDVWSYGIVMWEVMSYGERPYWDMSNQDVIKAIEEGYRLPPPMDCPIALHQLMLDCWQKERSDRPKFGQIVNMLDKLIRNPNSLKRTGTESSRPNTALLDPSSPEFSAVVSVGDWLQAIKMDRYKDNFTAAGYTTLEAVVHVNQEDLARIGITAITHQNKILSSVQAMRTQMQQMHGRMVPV
Chain of Rho-associated protein kinase 1 (Homo sapiens) (Q13464 2-1354 limits assumed): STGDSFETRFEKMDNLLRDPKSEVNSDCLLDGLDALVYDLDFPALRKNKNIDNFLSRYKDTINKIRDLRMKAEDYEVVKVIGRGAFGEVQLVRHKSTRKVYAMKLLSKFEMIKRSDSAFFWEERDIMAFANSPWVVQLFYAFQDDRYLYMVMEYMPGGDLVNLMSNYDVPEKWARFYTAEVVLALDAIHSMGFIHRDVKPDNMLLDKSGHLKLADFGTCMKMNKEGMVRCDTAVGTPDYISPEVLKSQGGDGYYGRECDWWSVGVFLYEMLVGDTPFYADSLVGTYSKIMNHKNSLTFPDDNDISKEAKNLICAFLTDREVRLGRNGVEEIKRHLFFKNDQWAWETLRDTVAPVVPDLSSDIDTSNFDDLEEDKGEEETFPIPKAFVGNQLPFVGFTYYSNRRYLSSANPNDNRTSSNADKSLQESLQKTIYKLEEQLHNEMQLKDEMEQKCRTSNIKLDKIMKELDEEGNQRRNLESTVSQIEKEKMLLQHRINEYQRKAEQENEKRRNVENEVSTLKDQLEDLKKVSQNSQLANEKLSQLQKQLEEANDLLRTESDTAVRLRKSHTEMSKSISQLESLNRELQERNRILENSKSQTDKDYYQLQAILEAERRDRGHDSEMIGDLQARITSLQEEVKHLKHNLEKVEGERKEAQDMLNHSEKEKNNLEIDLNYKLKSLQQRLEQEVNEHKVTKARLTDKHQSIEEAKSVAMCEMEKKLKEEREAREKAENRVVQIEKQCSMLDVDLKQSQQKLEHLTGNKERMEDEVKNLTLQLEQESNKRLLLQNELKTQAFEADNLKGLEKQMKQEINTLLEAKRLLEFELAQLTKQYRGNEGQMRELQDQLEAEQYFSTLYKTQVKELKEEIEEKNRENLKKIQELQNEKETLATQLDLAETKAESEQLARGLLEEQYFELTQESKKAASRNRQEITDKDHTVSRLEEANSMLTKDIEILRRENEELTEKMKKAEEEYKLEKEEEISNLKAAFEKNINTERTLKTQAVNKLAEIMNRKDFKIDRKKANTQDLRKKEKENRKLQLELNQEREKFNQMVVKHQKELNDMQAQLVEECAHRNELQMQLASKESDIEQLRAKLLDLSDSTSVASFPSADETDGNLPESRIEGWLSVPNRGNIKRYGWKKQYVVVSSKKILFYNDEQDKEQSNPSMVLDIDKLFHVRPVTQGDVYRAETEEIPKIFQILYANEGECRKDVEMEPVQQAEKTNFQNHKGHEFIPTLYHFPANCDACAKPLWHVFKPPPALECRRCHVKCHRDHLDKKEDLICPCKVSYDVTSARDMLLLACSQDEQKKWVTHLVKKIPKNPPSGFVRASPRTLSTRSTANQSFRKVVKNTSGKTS
Chain of Proto-oncogene tyrosine-protein kinase ROS (Homo sapiens) (P08922 whole entry): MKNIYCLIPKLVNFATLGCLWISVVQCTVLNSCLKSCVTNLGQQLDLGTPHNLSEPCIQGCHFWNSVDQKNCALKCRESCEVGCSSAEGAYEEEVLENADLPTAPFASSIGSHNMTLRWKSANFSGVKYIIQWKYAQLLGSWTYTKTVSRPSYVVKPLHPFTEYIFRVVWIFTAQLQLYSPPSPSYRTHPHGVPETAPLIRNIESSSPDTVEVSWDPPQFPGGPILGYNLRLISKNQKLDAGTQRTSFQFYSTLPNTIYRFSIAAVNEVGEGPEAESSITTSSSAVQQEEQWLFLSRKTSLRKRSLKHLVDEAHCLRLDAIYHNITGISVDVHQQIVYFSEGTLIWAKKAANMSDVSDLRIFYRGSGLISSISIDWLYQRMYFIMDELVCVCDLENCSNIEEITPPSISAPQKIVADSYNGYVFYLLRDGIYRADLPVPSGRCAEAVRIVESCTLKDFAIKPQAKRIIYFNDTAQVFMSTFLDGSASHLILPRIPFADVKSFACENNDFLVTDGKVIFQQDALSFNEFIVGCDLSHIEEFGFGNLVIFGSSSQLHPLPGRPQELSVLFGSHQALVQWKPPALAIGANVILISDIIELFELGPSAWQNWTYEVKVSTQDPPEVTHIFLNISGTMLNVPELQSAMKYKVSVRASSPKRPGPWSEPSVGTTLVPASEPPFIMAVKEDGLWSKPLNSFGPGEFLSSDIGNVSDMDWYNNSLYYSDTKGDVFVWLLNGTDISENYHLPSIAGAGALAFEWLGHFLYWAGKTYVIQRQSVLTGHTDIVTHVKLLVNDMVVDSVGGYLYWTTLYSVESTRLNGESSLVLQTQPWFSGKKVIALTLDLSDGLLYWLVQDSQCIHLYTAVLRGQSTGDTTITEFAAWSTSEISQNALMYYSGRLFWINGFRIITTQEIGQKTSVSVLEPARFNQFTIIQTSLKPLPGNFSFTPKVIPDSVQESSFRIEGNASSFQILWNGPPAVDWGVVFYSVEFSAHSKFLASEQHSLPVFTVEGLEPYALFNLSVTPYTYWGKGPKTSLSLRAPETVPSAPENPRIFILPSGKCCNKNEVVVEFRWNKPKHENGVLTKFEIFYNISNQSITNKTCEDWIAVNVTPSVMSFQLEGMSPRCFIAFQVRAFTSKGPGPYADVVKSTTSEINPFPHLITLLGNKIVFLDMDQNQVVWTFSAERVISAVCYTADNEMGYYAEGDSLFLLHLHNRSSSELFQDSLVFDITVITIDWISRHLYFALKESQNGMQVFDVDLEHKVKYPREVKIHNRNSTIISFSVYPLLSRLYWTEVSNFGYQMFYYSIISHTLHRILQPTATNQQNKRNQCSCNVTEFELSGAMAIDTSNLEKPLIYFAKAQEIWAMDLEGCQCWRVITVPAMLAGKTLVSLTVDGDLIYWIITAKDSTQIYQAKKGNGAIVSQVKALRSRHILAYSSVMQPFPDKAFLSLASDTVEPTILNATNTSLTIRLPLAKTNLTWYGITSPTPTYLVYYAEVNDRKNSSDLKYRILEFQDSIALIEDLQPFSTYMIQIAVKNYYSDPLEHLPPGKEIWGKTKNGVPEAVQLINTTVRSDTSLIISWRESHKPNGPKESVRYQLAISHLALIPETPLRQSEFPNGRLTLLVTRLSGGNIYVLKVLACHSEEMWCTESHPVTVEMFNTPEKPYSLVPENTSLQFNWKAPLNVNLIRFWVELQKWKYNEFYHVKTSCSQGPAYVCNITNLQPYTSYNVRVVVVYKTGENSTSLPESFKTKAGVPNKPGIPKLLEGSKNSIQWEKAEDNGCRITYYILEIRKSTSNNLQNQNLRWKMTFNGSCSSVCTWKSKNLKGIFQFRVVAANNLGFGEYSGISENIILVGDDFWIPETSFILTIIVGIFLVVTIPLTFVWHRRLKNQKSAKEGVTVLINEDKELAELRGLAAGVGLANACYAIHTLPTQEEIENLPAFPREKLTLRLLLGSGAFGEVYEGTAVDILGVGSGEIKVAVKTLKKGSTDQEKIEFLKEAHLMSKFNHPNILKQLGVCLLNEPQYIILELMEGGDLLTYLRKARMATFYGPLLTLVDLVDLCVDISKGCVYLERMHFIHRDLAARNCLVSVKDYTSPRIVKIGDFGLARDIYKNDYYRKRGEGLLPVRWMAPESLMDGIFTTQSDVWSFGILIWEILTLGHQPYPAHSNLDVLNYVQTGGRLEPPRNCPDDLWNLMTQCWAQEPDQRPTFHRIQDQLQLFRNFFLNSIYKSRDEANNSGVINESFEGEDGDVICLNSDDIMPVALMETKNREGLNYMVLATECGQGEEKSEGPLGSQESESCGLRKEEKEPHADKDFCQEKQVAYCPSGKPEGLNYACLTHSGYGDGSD
Chain of Serine/threonine-protein kinase Nek6 (Homo sapiens) (Q9HC98 whole entry): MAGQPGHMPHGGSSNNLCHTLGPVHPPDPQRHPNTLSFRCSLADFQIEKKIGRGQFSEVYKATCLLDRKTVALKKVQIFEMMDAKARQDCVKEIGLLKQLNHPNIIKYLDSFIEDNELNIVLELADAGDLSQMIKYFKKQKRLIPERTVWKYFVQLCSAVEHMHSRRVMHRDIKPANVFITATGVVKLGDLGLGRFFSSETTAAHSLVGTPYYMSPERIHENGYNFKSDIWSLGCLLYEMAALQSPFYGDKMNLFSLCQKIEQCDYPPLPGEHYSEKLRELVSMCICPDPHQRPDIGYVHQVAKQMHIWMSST

Structure (SMILES): CNC(=O)Nc1ccc(-c2nc(N3CC4CCC(C3)O4)c3cnn(C4CCC5(CC4)OCCO5)c3n2)cc1
% of control [1]: 22%
% of control [2]: 90%

Structure (SMILES): COCC(=O)NC/C=C/c1ccc2ncnc(Nc3ccc(Oc4ccc(C)nc4)c(C)c3)c2c1 [CP-724714]
% of control [6]: 100%

Structure (SMILES): N#Cc1cccc(-c2c[nH]c3ncnc(N4CCOCC4)c23)c1
% of control [9]: 85%
% of control (Ephrin type-A receptor 4 [10]): 100%

Other lines, results leading:

% of control (Ephrin type-A receptor 4 [3]): 100%
Structure (SMILES): CCN(CC)CCCCNc1ncc2cc(-c3cc(OC)cc(OC)c3)c(NC(=O)NC(C)(C)C)nc2n1

% of inhibition [4]: 18.1%
% of inhibition [5]: 0%
Structure (SMILES): CC[C@@H]1[C@H](F)C(=O)N[C@@H]1COc1nccc2cc(C(N)=O)c(OC)cc12 [ZIMLOVISERTIB]

% of control [7]: 99%
% of control [8]: 97%
Structure (SMILES): CC(=O)Nc1cccc(-n2c(=O)n(C3CC3)c(=O)c3c(Nc4ccc(I)cc4F)n(C)c(=O)c(C)c32)c1
